Test results published in paper PMC6753678, “Fueling Open Innovation for Malaria Transmission-Blocking Drugs: Hundreds of Molecules Targeting Early Parasite Mosquito Stages” (Frontiers in Microbiology, 2019).
Where two headings read alike, the source gives them in different places.

Key:
HepG2 cells = assay: HepG2 cytotoxicity assay; conditions: for Pb ODA (this manuscript) HepG2 cytoxicity: HepG2 cytotoxicity listed with the Pb ODA data set (this manuscript); for IC50: read-out: HepG2 cytotoxicity assay IC50, dose response confirmation
In short: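 Cells are plated at 2,500 per well on compound-treated plates in MEM containing 10% fetal bovine serum and 1% NEAA, then incubated 48 h at 37°C.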

[1] = system: P. berghei ookinete development; conditions: for % inhibition, Replicate A / % inhibition, Replicate B: primary screen at 1 μM
[2] = system: 3D7-strain P. falciparum asexual parasites; assay: P. falciparum asexual growth inhibition assay (Pf GIA); format: cell-based, Plasmodium falciparum; conditions: dose response confirmation; read-out: Pf asexual growth inhibition assays IC50
In short: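 LDH readout: absorbance at 650 nm after 10 min at room temperature with lactate/APAD/NBT/diaphorase mix on thawed plates. Cultures (0.25% parasitemia, 2% hematocrit) were treated 72 h at 37°C in low-oxygen gas. Inhibition was normalised to 50 μM chloroquine and DMSO; n=3 biological replicates.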

[3] = read-out: Pb ODA (this manuscript) IC50, P. berghei ookinete development assay, this manuscript
[4] = read-out: Pb Ookinete development assay IC50, dose response confirmation
[5] = unified HepG2 value across the three screens
[6] = read-out: Pb ODA IC50, this manuscript
[7] = HepG2 values of the three screens unified

SMILES	Pb ODA (this manuscript) HepG2 cytoxicity (HepG2 cells)	IC50 (HepG2 cells)	Is compound selective in assay? Pb ODA active? [1]	% inhibition, Replicate A [1]	% inhibition, Replicate B [1]	IC50 [1, 3]	IC50 [1, 4]	IC50 [2]	Unified cytotox (HepG2 cells; [5])	Is compound selective in assay? Pb ODA active? ([1]; 1: YES, 0: NO)	IC50 [1, 6]	HepG2 cytoxicity (Pb ODA, this manuscript) (HepG2 cells)	Unified cytotox (HepG2 cells; [7])
Cc1ccc(S(=O)(=O)N2CCCN(C(=O)c3cc(-c4ccccc4)n[nH]3)CC2)cc1 [TCMDC-125243]	100.00 µM	100000 nM	1 (key: 1: YES; 0: NO)	53.41%	33.70%	5420 nM	5420 nM	273 nM	–	–	–	–	–
Cc1[nH]c2ccccc2c1C(=O)C(C)Sc1nnc(-c2ccccc2F)o1 (stereo not drawn) [TCMDC-125312]	–	57500 nM	–	63.08%	65.66%	–	2580 nM	1270 nM	57.54 µM	1 (1: YES)	–	–	–
CN(C)c1ccc(C=CC(=O)NC(=O)c2ccccc2O)cc1 [TCMDC-125391]	–	100000 nM	–	87.61%	62.62%	–	210 nM	123 nM	100.00 µM	1 (1: YES)	–	–	–
O=C(c1ccco1)N1CCN(c2ccc([N+](=O)[O-])c(NC3CC3)c2)CC1 [TCMDC-125397]	–	2040 nM	–	106.00%	90.44%	–	1160 nM	< 0.2 nM	2.04 µM	0 (0: NO)	1160 nM	–	–
CC(Oc1ccc(NC(=O)c2cccs2)cc1)C(=O)c1ccc(Cl)cc1 (stereo not drawn) [TCMDC-125438]	100.00 µM	100000 nM	1 (key: 1: YES; 0: NO)	52.47%	58.23%	1010 nM	1010 nM	512 nM	–	–	–	–	–
Cc1ccc(Cn2c(N3CCC(C(=O)NCc4ccccn4)CC3)nc3ccccc32)cc1 [TCMDC-125442]	–	69200 nM	–	48.51%	58.27%	–	1180 nM	469 nM	69.18 µM	1 (1: YES)	1180 nM	–	–
COc1ccc(Cl)cc1NC(=O)CN(C)C(=O)c1cnn(-c2ccccc2)n1 [TCMDC-125457]	–	100000 nM	–	53.54%	37.16%	–	5110 nM	222 nM	100.00 µM	1 (1: YES)	5110 nM	–	–
O=C1C(c2ccccc2)=C(Nc2cccc(OC(F)(F)C(F)F)c2)c2ccccc21 [TCMDC-125498]	100.00 µM	100000 nM	1 (key: 1: YES; 0: NO)	29.02%	52.36%	1380 nM	1380 nM	68 nM	–	–	–	–	–
COc1ccc(NC2=C(c3ccccc3)C(=O)c3ccccc32)cn1 [TCMDC-125501]	100.00 µM	100000 nM	1 (key: 1: YES; 0: NO)	44.98%	57.32%	1980 nM	1980 nM	385 nM	–	–	–	–	–
CCN(CC)CCCNc1c2ccccc2nc2ccccc12.Cl [TCMDC-125517]	–	18200 nM	–	20.29%	90.60%	–	1610 nM	50 nM	–	1 (1: YES)	1610 nM	18.20 µM	18.20 µM
Cc1c2ccncc2c(C)c2c1[nH]c1ccccc12 [TCMDC-125546]	–	15100 nM	–	41.57%	50.63%	–	5260 nM	1190 nM	15.14 µM	0 (0: NO)	5270 nM	–	–
CCn1cc(C(=O)O)c(=O)c2cc(F)c(N3CCN(S(=O)(=O)c4ccc(N)cc4)CC3)cc21 [TCMDC-125809]	–	100000 nM	–	58.34%	60.71%	–	978 nM	1690 nM	100.00 µM	1 (1: YES)	980 nM	–	–
O=C(NC(=O)c1ccccc1O)c1ccccc1O [TCMDC-125868]	–	100000 nM	–	63.28%	34.36%	–	460 nM	2030 nM	100.00 µM	1 (1: YES)	–	–	–
COc1ccc2nccc(NC(=O)C3CCC(NCc4cnc(SC)c([N+](=O)[O-])c4)CC3)c2n1.Cl (stereo not drawn) [TCMDC-131238]	14.62 µM	14600 nM	0 (key: 1: YES; 0: NO)	77.59%	35.00%	2410 nM	2410 nM	676 nM	–	–	–	–	–
Br.CCCc1cc(C)ccc1OCCCON1C(N)=NC(N)=NC1(C)C [TCMDC-131320]	–	1.7 nM	–	73.15%	59.20%	–	5110 nM	< 0.2 nM	–	0 (0: NO)	5110 nM	0.0017 µM	0.0017 µM
C=CCc1cc(OC)ccc1OCCCOc1c(C)nc(N)nc1N.Cl [TCMDC-131358]	–	260 nM	–	71.96%	22.95%	–	2360 nM	< 0.2 nM	0.26 µM	0 (0: NO)	2360 nM	–	–
CCN(CC)c1ccccc1CNC(=O)c1cc(Cl)c(N)cc1OC [TCMDC-131416]	–	41700 nM	–	54.83%	54.70%	–	1320 nM	< 0.2 nM	41.69 µM	1 (1: YES)	1320 nM	–	–
CCOC(=O)c1c(-c2ccccc2)nc2c(sc3ccccc32)c1O [TCMDC-131540]	–	100000 nM	–	101.19%	85.53%	–	1310 nM	3870 nM	100.00 µM	1 (1: YES)	1310 nM	–	–
CC(ON1C(N)=NC(N)=NC1(C)C)c1ccccc1 (stereo not drawn) [TCMDC-131596]	–	37.2 nM	–	78.80%	47.07%	–	5190 nM	14 nM	–	0 (0: NO)	–	0.0372 µM	0.0372 µM
Br.Cc1ccc(OCCCON2C(=N)N=C(N)NC2(C)C)cc1C [TCMDC-131650]	0.001 µM	1 nM	0 (key: 1: YES; 0: NO)	43.37%	66.90%	4960 nM	4960 nM	< 0.2 nM	–	–	–	–	–
Br.CC1(C)N=C(N)N=C(N)N1OCCc1cccc2ccccc12 [TCMDC-131663]	0.001 µM	1 nM	0 (key: 1: YES; 0: NO)	57.64%	56.80%	2710 nM	2710 nM	24 nM	–	–	–	–	–
Br.CC1(C)NC(N)=NC(=N)N1OCCSc1ccccc1 [TCMDC-131670]	0.001 µM	1 nM	0 (key: 1: YES; 0: NO)	44.97%	56.76%	2860 nM	2860 nM	< 0.2 nM	–	–	–	–	–
Br.CC1(C)NC(N)=NC(=N)N1OCCCOc1cc(Cl)ccc1Cl [TCMDC-131679]	0.001 µM	1 nM	0 (key: 1: YES; 0: NO)	77.33%	60.56%	3390 nM	3390 nM	< 0.2 nM	–	–	–	–	–
Br.CC(CON1C(N)=NC(N)=NC1(C)C)c1ccc(Cl)cc1Cl (stereo not drawn) [TCMDC-131687]	–	1 nM	–	63.61%	60.22%	–	2100 nM	39 nM	–	0 (0: NO)	2100 nM	0.001 µM	0.001 µM
CC1(C)N=C(N)N=C(N)N1OCCCc1ccccc1.Cl [TCMDC-131689]	–	1 nM	–	42.43%	56.50%	–	2540 nM	< 0.2 nM	–	0 (0: NO)	2540 nM	0.001 µM	0.001 µM
